Data as given in paper PMC3629977 (Journal of nuclear medicine : official publication, Society …, 2010).
Bridge positions count the residues as written; N and C are the ends. Square brackets hold non-standard residues; d marks the D form. Peptide text beside a SMILES is read from it. * marks the point of attachment. 2Nal = N[C@@H](Cc1ccc2ccccc2c1)C(=O)O; Benzoyl(4-F) = O=C(c1ccc(F)cc1)*; Cit = NC(=O)NCCC[C@H](N)C(=O)O

How the values were obtained:
[1] = tested on: CXCR4; conditions: cited from earlier work
[2] = tested on: stem cells from the bone marrow; conditions: compared with AMD3100/plerixafor; cited from earlier work
[3] = tested on: CHO-CXCR4 tumors; conditions: in vivo
[4] = tested on: red blood cells; conditions: mouse, in vivo
[5] = tested on: CHO-CXCR4 tumors; conditions: 4-^18F-T140 alone, mice bearing CHO and CHO-CXCR4 tumors; Fig. 5A: 2 h after injection, 50 μCi
[6] = female, athymic nude, mouse, iv, 3 h

| Structure (SMILES) | CXCR4 antagonist selectivity [1] | in vivo mobilization of stem cells from the bone marrow [2] | tumor-to-blood ratio (CHO-CXCR4) [3, 6] | tumor-to-muscle ratio (CHO-CXCR4) [3, 6] | difference of uptake between CHO-CXCR4 and CXCR4-negative CHO tumors [3] | binding to red blood cells [4] | PET visualization of tumors [5] |
| --- | --- | --- | --- | --- | --- | --- | --- |
| N=C(N)NCCC[C@H](NC(=O)[C@@H]1CSSC[C@H](NC(=O)[C@H](Cc2ccc3ccccc3c2)NC(=O)[C@H](CCCNC(=N)N)NC(=O)[C@H](CCCNC(=N)N)NC(=O)c2ccc(F)cc2)C(=O)N[C@@H](Cc2ccc(O)cc2)C(=O)N[C@@H](CCCNC(N)=O)C(=O)N[C@@H](CCCCN)C(=O)N[C@H](CCCCN)C(=O)N2CCC[C@H]2C(=O)N[C@@H](Cc2ccc(O)cc2)C(=O)N[C@@H](CCCNC(=N)N)C(=O)N[C@@H](CCCNC(N)=O)C(=O)N1)C(N)=O [4-F-T140, 4-F-benzoyl-TN14003] ({Benzoyl(4-F)}-RR[2Nal]CY[Cit]K[dK]PYR[Cit]CR-NH2; disulfide 4-13) | highly selective CXCR4 antagonist | increased in vivo mobilization of stem cells from the bone marrow |  |  |  |  |  |
| N=C(N)NCCC[C@H](NC(=O)[C@@H]1CSSC[C@H](NC(=O)[C@H](Cc2ccc3ccccc3c2)NC(=O)[C@H](CCCNC(=N)N)NC(=O)[C@H](CCCNC(=N)N)NC(=O)c2ccc(F)cc2)C(=O)N[C@@H](Cc2ccc(O)cc2)C(=O)N[C@@H](CCCNC(N)=O)C(=O)N[C@@H](CCCCN)C(=O)N[C@H](CCCCN)C(=O)N2CCC[C@H]2C(=O)N[C@@H](Cc2ccc(O)cc2)C(=O)N[C@@H](CCCNC(=N)N)C(=O)N[C@@H](CCCNC(N)=O)C(=O)N1)C(N)=O [4-^18F-T140, 4-^18F-benzoyl-TN14003] ({Benzoyl(4-F)}-RR[2Nal]CY[Cit]K[dK]PYR[Cit]CR-NH2; disulfide 4-13) |  |  | 0.19 ± 0.04 | 2.94 ± 0.16 | not statistically significant | bind specifically to red blood cells in vitro and in vivo | clearly showed both tumors |
